Reference: US20250115597A1, “TYK2 INHIBITORS AND COMPOSITIONS AND METHODS THEREOF” (LYNK PHARMACEUTICALS CO. LTD., priority 2021, published 2025)
Read-outs that look alike come from different tables or passages of the source.

Experiments:
[1] = Microsomal metabolic stability assay; assay type: in vitro ADME; details: pH 7.4, 0.5 mg/mL protein, 1 μM compound
Method: Microsomal Metabolic Stability Assay
Microsomes were pre-incubated with test compound or control compounds for 5 min at 37° C. in 100 mM potassium phosphate buffer, pH 7.4, 1.0 mM EDTA. The reaction was initiated by addition of 15 μL of the NADPH regenerating system to 30 μL of each incubation mixture per time point. The final incubation condition was composed of 0.5 mg/mL microsomal protein, 1 μM test article/positive control, 2 mM NADPH. The 0-minute samples were prepared by addition of a 30 μL aliquot of each incubation mixture to 135 μL quench reagent to precipitate proteins. And then a 15 μL aliquot of the NADPH regenerating system was added. At 5, 15, 30 and 45 minutes, the reaction will be stopped by the addition of cold acetonitrile solution containing internal standard. The samples taken at all time points were centrifuged at 5000×g for 15 minutes. 50 μL of supernatant are taken into 96-well assay plates pre-added with 50 μL ultrapure water, and then analyzed by LC/MS/MS.
Concentrations of test articles, control compounds in the samples were determined by using LC/MS/MS method. Plotting of the chromatograms and peak area integrations are carried out by Analyst (AB Sciex).
n the determination of the in vitro elimination constant (ke) of the control compounds, the analyte/internal standard peak area ratios will be converted to percentage remaining (% Remaining) with the following equation: […]
The slope was measured by the natural logarithm of the percentage of the residual compound and time, T1/2 was calculated according to the following formula.

[2] = molecular target: T1, Ba/F3-FL-TYK2-P760L cells (Homo sapiens, UniProt P29597, P760L, cells depend on it); experiment: Anti-proliferative assay, Ba/F3-FL-TYK2-P760L cells (Cell-Titer Glo); assay type: cell-based; details: 72 h, read-out: BaF3-FL-T2P760L IC50
T1 construct: BaF3-FL-T2P760L (nM)
Procedure, shortened: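 Compound exposure ran 72 h at 37 °C in 5% CO2 across nine 3-fold concentrations from a 20 μM top dose, added 24 h after seeding 2000 cells/well.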

[3] = human liver microsomes, read-out: Human LM Clint
[4] = human liver microsomes, read-out: Human LM T½
[5] = rat liver microsomes, read-out: Rat LM Clint
[6] = rat liver microsomes, read-out: Rat LM T½
[7] = dog liver microsomes, read-out: Dog LM Clint
[8] = dog liver microsomes, read-out: Dog LM T½

T1 sequence (P29597 whole entry P760L): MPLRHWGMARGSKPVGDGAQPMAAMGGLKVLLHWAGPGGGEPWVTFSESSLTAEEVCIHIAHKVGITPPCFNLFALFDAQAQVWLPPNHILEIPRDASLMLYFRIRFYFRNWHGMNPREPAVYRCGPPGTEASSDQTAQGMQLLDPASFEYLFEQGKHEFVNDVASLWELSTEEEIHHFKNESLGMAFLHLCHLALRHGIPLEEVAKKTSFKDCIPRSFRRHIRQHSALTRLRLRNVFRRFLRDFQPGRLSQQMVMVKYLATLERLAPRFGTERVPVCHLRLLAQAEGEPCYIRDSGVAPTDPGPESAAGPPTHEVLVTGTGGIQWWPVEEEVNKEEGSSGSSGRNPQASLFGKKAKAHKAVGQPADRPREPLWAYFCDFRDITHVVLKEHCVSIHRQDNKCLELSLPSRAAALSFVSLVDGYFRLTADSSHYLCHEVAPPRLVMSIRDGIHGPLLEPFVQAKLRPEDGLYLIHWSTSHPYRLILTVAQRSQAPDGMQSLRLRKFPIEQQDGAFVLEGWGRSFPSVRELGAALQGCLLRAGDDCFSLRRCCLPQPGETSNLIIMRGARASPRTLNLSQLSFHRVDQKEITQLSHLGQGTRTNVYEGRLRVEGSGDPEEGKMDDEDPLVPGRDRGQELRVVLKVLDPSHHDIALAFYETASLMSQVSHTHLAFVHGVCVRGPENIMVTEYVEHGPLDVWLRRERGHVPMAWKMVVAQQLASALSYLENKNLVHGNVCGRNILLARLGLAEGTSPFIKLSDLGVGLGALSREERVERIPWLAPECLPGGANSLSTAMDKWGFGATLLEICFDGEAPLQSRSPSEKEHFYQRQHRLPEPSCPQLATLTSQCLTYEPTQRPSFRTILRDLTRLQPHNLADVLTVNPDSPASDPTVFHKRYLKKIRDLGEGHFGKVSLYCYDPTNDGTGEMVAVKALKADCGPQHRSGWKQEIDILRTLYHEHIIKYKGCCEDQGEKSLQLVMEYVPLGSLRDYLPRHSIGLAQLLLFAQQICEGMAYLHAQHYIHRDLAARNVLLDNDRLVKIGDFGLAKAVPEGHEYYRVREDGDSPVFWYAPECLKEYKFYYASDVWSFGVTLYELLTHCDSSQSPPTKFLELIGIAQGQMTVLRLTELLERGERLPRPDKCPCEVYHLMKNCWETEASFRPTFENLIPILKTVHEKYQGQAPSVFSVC

Row | SMILES | microsomal CLint at 1 μM [1, 3] | half-life at 1 μM [1, 4] | microsomal CLint at 1 μM [1, 5] | half-life at 1 μM [1, 6] | GI50 [2] | microsomal CLint at 1 μM [1, 7] | half-life at 1 μM [1, 8]
1 | [2H]C([2H])([2H])NC(=O)c1cnc(NC(=O)C2CC2)cc1Nc1cn(C)c2ncn(CC(F)(F)F)c(=O)c12 [Example 195, 6-(Cyclopropanecarboxamido)-N-(methyl-d3)-4-((7-methyl-4-oxo-3-(2,2,2-trifluoroethyl)-4,7-dihydro-3H-pyrrolo[2,3-d]pyrimidin-5-yl)amino)nicotinamide] | 40 µL/min/mg | 34.6 min | 8.8 µL/min/mg | 158 min | 560 nM |  | 
2 | CNC(=O)c1cnc(NC(=O)C2CC2)cc1Nc1csc2c(Cl)cn(C)c(=O)c12 [Example 171, 4-((7-Chloro-5-methyl-4-oxo-4,5-dihydrothieno[3,2-c]pyridin-3-yl)amino)-6-(cyclopropanecarboxamido)-N-methylnicotinamide] | 12.8 µL/min/mg | 109 min | 16.9 µL/min/mg | 81.9 min | 105 nM | 2.94 µL/min/mg | 471 min
3 | [2H]C([2H])([2H])NC(=O)c1cnc2cc1Nc1cc(cc(-c3ncc(F)cn3)c1OC)COCc1nc(ccc1F)N2 [Example 86, 18-Fluoro-11-(5-fluoropyrimidin-2-yl)-10-methoxy-N-(methyl-d3)-15-oxa-2,4,8,21-tetraazatetracyclo[15.3.1.1^{3,7}.1^{9,13}]tricosa-1(20),3,5,7(23),9(22),10,12,17(21),18-nonaene-6-carboxamide] | < 11.5 µL/min/mg | > 120 min | < 11.5 µL/min/mg | > 120 min | 139 nM | 20 µL/min/mg | 69.4 min
4 | CCn1ccc2c(c(Nc3cc(Nc4ncc(F)cc4F)ncc3C(=O)NC)cn2C)c1=O [Example 98, 6-((3,5-Difluoropyridin-2-yl)amino)-4-((5-ethyl-1-methyl-4-oxo-4,5-dihydro-1H-pyrrolo[3,2-c]pyridin-3-yl)amino)-N-methylnicotinamide] | 32.6 µL/min/mg | 42.5 min | 114 µL/min/mg | 12.1 min | 488 nM | 37.3 µL/min/mg | 37.2 min
5 | [2H]C([2H])([2H])NC(=O)c1cnc(Nc2cccc(F)n2)cc1Nc1cn(C)c2c(Cl)cn(CC)c(=O)c12 [Example 161, 4-((7-Chloro-5-ethyl-1-methyl-4-oxo-4,5-dihydro-1H-pyrrolo[3,2-c]pyridin-3-yl)amino)-6-((6-fluoropyridin-2-yl)amino)-N-(methyl-d3)nicotinamide] | 74.6 µL/min/mg | 18.6 min | 63.5 µL/min/mg | 21.8 min | 21.6 nM | 27.2 µL/min/mg | 51 min
6 | [2H]C([2H])([2H])NC(=O)c1cnc2nc1Nc1cc(cc(-c3ncn(C)n3)c1OC)COCc1cc(F)cc(c1)N2 [Example 79, 19-Fluoro-10-methoxy-N-(methyl-d3)-11-(1-methyl-1H-1,2,4-triazol-3-yl)-15-oxa-2,4,8,23-tetraazatetracyclo[15.3.1.1^{3,7}.1^{9,13}]tricosa-1(21),3,5,7(23),9(22),10,12,17,19-nonaene-6-carboxamide] | 27.8 µL/min/mg | 50 min | 26.2 µL/min/mg | 52.9 min | 40.3 nM | 8.97 µL/min/mg | 155 min
7 | [2H]C([2H])([2H])NC(=O)c1nnc2cc1Nc1cc(cc(-c3ncn(C4CC4)n3)c1OC)COCc1nc(ccc1F)N2 [Example 82, 11-(1-Cyclopropyl-1H-1,2,4-triazol-3-yl)-18-fluoro-10-methoxy-N-(methyl-d3)-15-oxa-2,4,5,8,21-pentaazatetracyclo[15.3.1.1^{3,7}.1^{9,13}]tricosa-1(20),3,5,7(23),9(22),10,12,17(21),18-nonaene-6-carboxamide] | < 11.5 µL/min/mg | > 120 min | 20.1 µL/min/mg | 69 min | 64.3 nM | 17.8 µL/min/mg | 78 min
8 | CNC(=O)c1cnc(NC(=O)C2CC2)cc1Nc1cn(C)c2ccn(C)c(=O)c12 [Example 12, 6-(Cyclopropanecarboxamido)-4-((1,5-dimethyl-4-oxo-4,5-dihydro-1H-pyrrolo[3,2-c]pyridin-3-yl)amino)-N-methylnicotinamide] | 25.8 µL/min/mg | 53.7 min | 16.4 µL/min/mg | 84.5 min | 416 nM |  | 
9 | [2H]C([2H])([2H])NC(=O)c1cnc(NC(=O)C2CC2)cc1Nc1csc2cnn(C(C)C(F)(F)F)c(=O)c12 (centres unmarked) [Example 185, 6-(Cyclopropanecarboxamido)-N-(methyl-d3)-4-((4-oxo-5-(1,1,1-trifluoropropan-2-yl)-4,5-dihydrothieno[2,3-d]pyridazin-3-yl)amino)nicotinamide] | < 11.5 µL/min/mg | > 120 min | < 11.5 µL/min/mg | > 120 min | 428 nM | < 11.5 µL/min/mg | > 120 min
10 | CNC(=O)c1cnc(Nc2ccc(F)cn2)cc1Nc1cn(C)c2ccn(C)c(=O)c12 [Example 11, 4-((1,5-Dimethyl-4-oxo-4,5-dihydro-1H-pyrrolo[3,2-c]pyridin-3-yl)amino)-6-((5-fluoropyridin-2-yl)amino)-N-methylnicotinamide] | 74 µL/min/mg | 18.7 min | 30.6 µL/min/mg | 45.3 min | 124 nM |  | 
11 | [2H]C([2H])([2H])NC(=O)c1cnc(Nc2ccn(C)n2)cc1Nc1ccc2cnn(CC)c2c1OC [Example 43, 4-((1-Ethyl-7-methoxy-1H-indazol-6-yl)amino)-N-(methyl-d3)-6-((1-methyl-1H-pyrazol-3-yl)amino)nicotinamide] | 9.58 µL/min/mg | 145 min | 48.5 µL/min/mg | 28.6 min | 85.2 nM | 30.8 µL/min/mg | 45 min
12 | [2H]C([2H])([2H])NC(=O)c1cnc(NC(=O)C2CC2)cc1Nc1cn(C)c2c(F)cn(CC(F)(F)F)c(=O)c12 [Example 123, 6-(Cyclopropanecarboxamido)-4-((7-fluoro-1-methyl-4-oxo-5-(2,2,2-trifluoroethyl)-4,5-dihydro-1H-pyrrolo[3,2-c]pyridin-3-yl)amino)-N-(methyl-d3)nicotinamide] | 53 µL/min/mg | 26.2 min | 55.6 µL/min/mg | 25 min | 100 nM | 18.7 µL/min/mg | 84.8 min
13 | [2H]C([2H])([2H])NC(=O)c1cnc(NC(=O)C2CC2)cc1Nc1cc(F)c2cnn(CC)c2c1OC [Example 147, 6-(Cyclopropanecarboxamido)-4-((1-ethyl-4-fluoro-7-methoxy-1H-indazol-6-yl)amino)-N-(methyl-d3)nicotinamide] | 59 µL/min/mg | 23.5 min | 124 µL/min/mg | 11.1 min | 175 nM | 54.4 µL/min/mg | 25.5 min
14 | [2H]C([2H])([2H])NC(=O)c1cnc2nc1Nc1cc(cc(-c3ncn(C)n3)c1OC)COCc1cc(cc(F)c1F)N2 [Example 78, 18,19-Difluoro-10-methoxy-N-(methyl-d3)-11-(1-methyl-1H-1,2,4-triazol-3-yl)-15-oxa-2,4,8,23-tetraazatetracyclo[15.3.1.1^{3,7}.1^{9,13}]tricosa-1(20),3,5,7(23),9(22),10,12,17(21),18-nonaene-6-carboxamide] | 22 µL/min/mg | 63 min | 21.4 µL/min/mg | 64.7 min | 46.5 nM | 8.5 µL/min/mg | 163 min
15 | [2H]C([2H])([2H])NC(=O)c1cnc(NC(=O)C2CC2)cc1Nc1cn(CCOC)c2ccn(C(C)C(F)(F)F)c(=O)c12 (centres unmarked) [Example 201, 6-(Cyclopropanecarboxamido)-4-((1-(2-methoxyethyl)-4-oxo-5-(1,1,1-trifluoropropan-2-yl)-4,5-dihydro-1H-pyrrolo[3,2-c]pyridin-3-yl)amino)-N-(methyl-d3)nicotinamide] | 64.4 µL/min/mg | 21.5 min |  |  | 162 nM |  | 
